# Test results published in US12723063B2, “GIPR-agonist compounds” (Eli Lilly and Company, priority 2019, dated 2026).
# *1 amine or outer side, *2 acyl side, *3 side chain or, on linkers, in order; H or OH if unused. Where a SMILES comes first, the peptide text is derived from it. Side-chain parts run from the residue outwards. [ ]: non-standard residue; d: D form. The star is where a group is joined. C20 diacid = O=C(O)CCCCCCCCCCCCCCCCCCC(=O)*; γGlu = O=C(O)[C@H](CCC(=O)[*:2])N[*:1]; αMeF = C[C@](N)(Cc1ccccc1)C(=O)O; 4Pal = N[C@@H](Cc1ccncc1)C(=O)O; αMeL = CC(C)C[C@](C)(N)C(=O)O; AEEA = NCCOCCOCC(=O)O; Aib = CC(C)(N)C(=O)O
# Columns and labels:
# Assay in all cases: cAMP functional assay (HTRF) in HEK293 cells in presence of 0.1% casein
# Assay type in all cases: cell-based
# [1] = biological target: T1, human glucose-dependent insulinotropic peptide receptor (GIPR) (Homo sapiens, UniProt P48546); settings: HEK293 cells expressing human GIPR, geometric mean, read-out: hGIPR cAMP Rel EC50 nM (SEM, n)
# T1 construct: expressed in transfected cells; host or cells: HEK293
# T1 sequence (P48546 22-466): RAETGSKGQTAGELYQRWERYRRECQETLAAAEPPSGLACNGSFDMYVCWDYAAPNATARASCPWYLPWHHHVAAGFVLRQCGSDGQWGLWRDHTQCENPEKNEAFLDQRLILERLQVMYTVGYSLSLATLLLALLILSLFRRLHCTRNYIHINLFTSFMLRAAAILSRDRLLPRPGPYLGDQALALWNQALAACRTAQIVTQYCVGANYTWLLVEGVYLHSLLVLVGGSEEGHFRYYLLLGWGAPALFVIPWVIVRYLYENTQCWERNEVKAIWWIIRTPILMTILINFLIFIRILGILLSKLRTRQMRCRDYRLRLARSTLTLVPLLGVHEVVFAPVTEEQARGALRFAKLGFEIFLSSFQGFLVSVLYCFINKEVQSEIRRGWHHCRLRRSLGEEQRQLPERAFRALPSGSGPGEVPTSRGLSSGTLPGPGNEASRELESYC
# [2] = biological target: T2, human GLP-1 receptor (GLP-1R) (Homo sapiens, UniProt P43220); settings: HEK293 cells expressing human GLP-1R, geometric mean, read-out: hGLP1R cAMP Rel EC50 nM (SEM, n)
# T2 construct: expressed in transfected cells; host or cells: HEK293
# T2 sequence (P43220 24-463): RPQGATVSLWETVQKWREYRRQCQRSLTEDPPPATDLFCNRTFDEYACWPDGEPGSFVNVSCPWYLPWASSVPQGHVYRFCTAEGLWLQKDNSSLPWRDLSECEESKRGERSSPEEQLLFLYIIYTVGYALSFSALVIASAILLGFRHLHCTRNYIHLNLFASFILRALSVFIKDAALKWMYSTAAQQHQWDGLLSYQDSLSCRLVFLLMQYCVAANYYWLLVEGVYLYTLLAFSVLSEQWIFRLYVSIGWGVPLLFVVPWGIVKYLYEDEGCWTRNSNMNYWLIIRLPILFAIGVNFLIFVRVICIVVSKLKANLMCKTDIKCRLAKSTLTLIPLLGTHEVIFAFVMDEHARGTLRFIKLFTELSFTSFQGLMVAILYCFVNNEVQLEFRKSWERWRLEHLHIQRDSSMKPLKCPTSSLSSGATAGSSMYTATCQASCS
# [3] = biological target: T3, human glucagon receptor (GcgR) (Homo sapiens, UniProt P47871); settings: HEK293 cells expressing human GcgR, geometric mean, read-out: hGcgR cAMP Rel EC50 nM (SEM, n)
# T3 construct: expressed in transfected cells; host or cells: HEK293
# T3 sequence (P47871 26-477): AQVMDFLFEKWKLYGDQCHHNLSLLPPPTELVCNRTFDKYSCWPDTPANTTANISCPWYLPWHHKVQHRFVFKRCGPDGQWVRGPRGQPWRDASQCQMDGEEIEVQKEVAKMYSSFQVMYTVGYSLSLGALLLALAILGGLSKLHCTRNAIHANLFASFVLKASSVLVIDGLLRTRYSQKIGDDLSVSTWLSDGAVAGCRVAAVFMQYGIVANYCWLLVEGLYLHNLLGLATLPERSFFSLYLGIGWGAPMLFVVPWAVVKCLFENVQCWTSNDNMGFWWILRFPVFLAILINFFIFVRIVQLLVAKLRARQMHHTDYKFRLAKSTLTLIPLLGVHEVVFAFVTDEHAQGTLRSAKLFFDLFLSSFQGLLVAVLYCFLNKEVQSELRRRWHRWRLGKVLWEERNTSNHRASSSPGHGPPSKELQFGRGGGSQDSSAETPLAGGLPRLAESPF
Structure (SMILES),EC50 [1] [nM],EC50 [2] [nM],EC50 [3] [nM]
CC[C@H](C)[C@H](NC(=O)[C@H](Cc1ccccc1)NC(=O)[C@@H](NC(=O)CNC(=O)[C@H](CCC(=O)O)NC(=O)C(C)(C)NC(=O)[C@@H](N)Cc1ccc(O)cc1)[C@@H](C)O)C(=O)N[C@@H](CO)C(=O)N[C@@H](CC(=O)O)C(=O)N[C@@H](Cc1ccc(O)cc1)C(=O)N[C@@H](CO)C(=O)N[C@H](C(=O)N[C@@](C)(CC(C)C)C(=O)N[C@@H](CC(C)C)C(=O)N[C@@H](CC(=O)O)C(=O)N[C@@H](CCCCN)C(=O)N[C@@H](CCCCNC(=O)COCCOCCNC(=O)COCCOCCNC(=O)CC[C@H](NC(=O)CCCCCCCCCCCCCCCCCCC(=O)O)C(=O)O)C(=O)N[C@@H](Cc1c[nH]cn1)C(=O)N[C@@H](CCC(N)=O)C(=O)NC(C)(C)C(=O)N[C@@H](CCC(=O)O)C(=O)N[C@@H](Cc1ccccc1)C(=O)N[C@H](C(=O)N[C@@H](CCC(=O)O)C(=O)N[C@@H](Cc1ccncc1)C(=O)N[C@@H](CC(C)C)C(=O)N[C@@H](CC(C)C)C(=O)N[C@@H](C)C(=O)N[C@@H](CCC(N)=O)C(=O)NCC(=O)N1CCC[C@H]1C(=O)N[C@@H](CO)C(=O)N[C@@H](CO)C(=O)NCC(=O)N[C@@H](C)C(=O)N1CCC[C@H]1C(=O)N1CCC[C@H]1C(=O)N1CCC[C@H]1C(=O)N[C@@H](CO)C(N)=O)C(C)C)[C@@H](C)CC [Example 57] (H-Y[Aib]EGTFISDYSI[αMeL]LDKK([AEEA-AEEA-γGlu-C20 diacid])HQ[Aib]EFVE[4Pal]LLAQGPSSGAPPPS-NH2),0.0177,> 5000,886
CC[C@H](C)[C@H](NC(=O)[C@H](Cc1ccccc1)NC(=O)[C@@H](NC(=O)CNC(=O)[C@H](CCC(=O)O)NC(=O)C(C)(C)NC(=O)[C@@H](N)Cc1ccc(O)cc1)[C@@H](C)O)C(=O)N[C@@H](CO)C(=O)N[C@@H](CC(=O)O)C(=O)N[C@@H](Cc1ccc(O)cc1)C(=O)N[C@@H](CO)C(=O)N[C@H](C(=O)N[C@@](C)(CC(C)C)C(=O)N[C@@H](CC(C)C)C(=O)N[C@@H](CC(=O)O)C(=O)N[C@@H](CCCCN)C(=O)N[C@@H](CCCCNC(=O)COCCOCCNC(=O)COCCOCCNC(=O)CC[C@H](NC(=O)CCCCCCCCCCCCCCCCCCC(=O)O)C(=O)O)C(=O)N[C@@H](Cc1c[nH]cn1)C(=O)N[C@@H](CCC(N)=O)C(=O)NC(C)(C)C(=O)N[C@@H](CC(=O)O)C(=O)N[C@@H](Cc1ccccc1)C(=O)N[C@H](C(=O)N[C@@H](CCC(=O)O)C(=O)N[C@@H](Cc1ccncc1)C(=O)N[C@@H](CC(C)C)C(=O)N[C@@H](CC(C)C)C(=O)N[C@@H](C)C(=O)N[C@H](C(=O)NCC(=O)N1CCC[C@H]1C(=O)N[C@@H](CO)C(=O)N[C@@H](CO)C(=O)NCC(=O)N[C@@H](C)C(=O)N1CCC[C@H]1C(=O)N1CCC[C@H]1C(=O)N1CCC[C@H]1C(=O)N[C@@H](CO)C(N)=O)[C@@H](C)O)C(C)C)[C@@H](C)CC [Example 70] (H-Y[Aib]EGTFISDYSI[αMeL]LDKK([AEEA-AEEA-γGlu-C20 diacid])HQ[Aib]DFVE[4Pal]LLATGPSSGAPPPS-NH2),0.0254,> 5000,3560
CC[C@H](C)[C@H](NC(=O)[C@H](Cc1ccccc1)NC(=O)[C@@H](NC(=O)CNC(=O)[C@H](CCC(=O)O)NC(=O)C(C)(C)NC(=O)[C@@H](N)Cc1ccc(O)cc1)[C@@H](C)O)C(=O)N[C@@H](CO)C(=O)N[C@@H](CC(=O)O)C(=O)N[C@@H](Cc1ccc(O)cc1)C(=O)N[C@@H](CO)C(=O)N[C@H](C(=O)N[C@@](C)(CC(C)C)C(=O)N[C@@H](CC(C)C)C(=O)N[C@@H](CC(=O)O)C(=O)N[C@@H](CCCCN)C(=O)N[C@@H](CCCCNC(=O)COCCOCCNC(=O)COCCOCCNC(=O)CC[C@H](NC(=O)CCCCCCCCCCCCCCCCCCC(=O)O)C(=O)O)C(=O)N[C@@H](Cc1c[nH]cn1)C(=O)N[C@@H](CCC(N)=O)C(=O)NC(C)(C)C(=O)N[C@@H](CC(=O)O)C(=O)N[C@@H](Cc1ccccc1)C(=O)N[C@H](C(=O)N[C@@H](CCC(=O)O)C(=O)N[C@@H](Cc1ccncc1)C(=O)N[C@@H](CC(C)C)C(=O)N[C@@H](CC(C)C)C(=O)N[C@@H](C)C(=O)NCC(=O)NCC(=O)N1CCC[C@H]1C(=O)N[C@@H](CO)C(=O)N[C@@H](CO)C(=O)NCC(=O)N[C@@H](C)C(=O)N1CCC[C@H]1C(=O)N1CCC[C@H]1C(=O)N1CCC[C@H]1C(=O)N[C@@H](CO)C(N)=O)C(C)C)[C@@H](C)CC [Example 48],0.0166,> 5000,1360
CC[C@H](C)[C@H](NC(=O)[C@H](Cc1ccccc1)NC(=O)[C@@H](NC(=O)CNC(=O)[C@H](CCC(=O)O)NC(=O)C(C)(C)NC(=O)[C@@H](N)Cc1ccc(O)cc1)[C@@H](C)O)C(=O)N[C@@H](CO)C(=O)N[C@@H](CC(=O)O)C(=O)N[C@@H](Cc1ccc(O)cc1)C(=O)N[C@@H](CO)C(=O)N[C@H](C(=O)N[C@@](C)(CC(C)C)C(=O)N[C@@H](CC(C)C)C(=O)N[C@@H](CC(=O)O)C(=O)N[C@@H](CCCCN)C(=O)N[C@@H](CCCCNC(=O)COCCOCCNC(=O)COCCOCCNC(=O)CC[C@H](NC(=O)CCCCCCCCCCCCCCCCCCC(=O)O)C(=O)O)C(=O)N[C@@H](Cc1c[nH]cn1)C(=O)N[C@@H](CCC(N)=O)C(=O)NC(C)(C)C(=O)N[C@@H](CC(=O)O)C(=O)N[C@@H](Cc1ccccc1)C(=O)N[C@H](C(=O)N[C@@H](CCC(=O)O)C(=O)N[C@@H](Cc1ccc(O)cc1)C(=O)N[C@@H](CC(C)C)C(=O)N[C@@H](CC(C)C)C(=O)N[C@@H](CCC(=O)O)C(=O)NCC(=O)NCC(=O)N1CCC[C@H]1C(=O)N[C@@H](CO)C(=O)N[C@@H](CO)C(=O)NCC(=O)N[C@@H](C)C(=O)N1CCC[C@H]1C(=O)N1CCC[C@H]1C(=O)N1CCC[C@H]1C(=O)N[C@@H](CO)C(N)=O)C(C)C)[C@@H](C)CC [Example 69] (H-Y[Aib]EGTFISDYSI[αMeL]LDKK([AEEA-AEEA-γGlu-C20 diacid])HQ[Aib]DFVEYLLEGGPSSGAPPPS-NH2),0.0302,> 5000,803
CC[C@H](C)[C@H](NC(=O)[C@H](CO)NC(=O)[C@H](Cc1ccc(O)cc1)NC(=O)[C@H](CC(=O)O)NC(=O)[C@H](CO)NC(=O)[C@@H](NC(=O)[C@](C)(Cc1ccccc1)NC(=O)[C@@H](NC(=O)CNC(=O)[C@H](CCC(=O)O)NC(=O)C(C)(C)NC(=O)[C@@H](N)Cc1ccc(O)cc1)[C@@H](C)O)[C@@H](C)CC)C(=O)N[C@@](C)(CC(C)C)C(=O)N[C@@H](CC(C)C)C(=O)N[C@@H](CC(=O)O)C(=O)N[C@@H](CCCCN)C(=O)N[C@@H](CCCCNC(=O)COCCOCCNC(=O)COCCOCCNC(=O)CC[C@H](NC(=O)CCCCCCCCCCCCCCCCCCC(=O)O)C(=O)O)C(=O)N[C@@H](Cc1c[nH]cn1)C(=O)N[C@@H](CCC(N)=O)C(=O)NC(C)(C)C(=O)N[C@@H](CCC(=O)O)C(=O)N[C@@H](Cc1ccccc1)C(=O)N[C@H](C(=O)N[C@@H](CCC(=O)O)C(=O)N[C@@H](Cc1ccncc1)C(=O)N[C@@H](CC(C)C)C(=O)N[C@@H](CC(C)C)C(=O)N[C@@H](C)C(=O)N[C@@H](C)C(=O)NCC(=O)N1CCC[C@H]1C(=O)N[C@@H](CO)C(=O)N[C@@H](CO)C(=O)NCC(=O)N[C@@H](C)C(=O)N1CCC[C@H]1C(=O)N1CCC[C@H]1C(=O)N1CCC[C@H]1C(=O)N[C@@H](CO)C(N)=O)C(C)C [Example 62] (H-Y[Aib]EGT[αMeF]ISDYSI[αMeL]LDKK([AEEA-AEEA-γGlu-C20 diacid])HQ[Aib]EFVE[4Pal]LLAAGPSSGAPPPS-NH2),0.0116,58.2,> 5000
CC[C@H](C)[C@H](NC(=O)[C@H](CO)NC(=O)[C@H](Cc1ccc(O)cc1)NC(=O)[C@H](CC(=O)O)NC(=O)[C@H](CO)NC(=O)[C@@H](NC(=O)[C@](C)(Cc1ccccc1)NC(=O)[C@@H](NC(=O)CNC(=O)[C@H](CCC(=O)O)NC(=O)C(C)(C)NC(=O)[C@@H](N)Cc1ccc(O)cc1)[C@@H](C)O)[C@@H](C)CC)C(=O)N[C@@H](C)C(=O)N[C@@H](CC(C)C)C(=O)N[C@@H](CC(=O)O)C(=O)N[C@@H](CCCCN)C(=O)N[C@@H](CCCCNC(=O)COCCOCCNC(=O)COCCOCCNC(=O)CC[C@H](NC(=O)CCCCCCCCCCCCCCCCCCC(=O)O)C(=O)O)C(=O)N[C@@H](Cc1c[nH]cn1)C(=O)N[C@@H](CCC(N)=O)C(=O)NC(C)(C)C(=O)N[C@@H](CC(=O)O)C(=O)N[C@@H](Cc1ccccc1)C(=O)N[C@H](C(=O)N[C@@H](CCC(=O)O)C(=O)N[C@@H](Cc1ccncc1)C(=O)N[C@@H](CC(C)C)C(=O)N[C@@H](CC(C)C)C(=O)N[C@@H](CCC(=O)O)C(=O)N[C@@H](C)C(=O)NCC(=O)N1CCC[C@H]1C(=O)N[C@@H](CO)C(=O)N[C@@H](CO)C(=O)NCC(=O)N[C@@H](C)C(=O)N1CCC[C@H]1C(=O)N1CCC[C@H]1C(=O)N1CCC[C@H]1C(=O)N[C@@H](CO)C(N)=O)C(C)C [Example 43] (H-Y[Aib]EGT[αMeF]ISDYSIALDKK([AEEA-AEEA-γGlu-C20 diacid])HQ[Aib]DFVE[4Pal]LLEAGPSSGAPPPS-NH2),0.0154,1020,> 5000
